Key:
[1] = tested on: supernatants from P. aeruginosa mutant strains deficient in LasB (LasB1, LasB2); conditions: pH 8
[2] = tested on: supernatants from the LasB-deficient P. aeruginosa mutants; conditions: P1[Tb]: 0.5 mM probe, 50 mM CaCl2, HEPES buffer, 9 µL supernatant, RT, 1 h before injection

Question: EGLAEW [P1[Tb]] was tested. Which “change of luminescence over time with LasB-deficient P. aeruginosa supernatants” value [1] did it give?
Answer: no changes in the luminescence

Question: What about the “integrity of probe with LasB-deficient P. aeruginosa supernatants (HPLC-MS)” value [2] of the same substance?
Answer: remained intact

From paper PMC11519908, “Luminescent Ln(III)-Metallopeptide Sensors for Monitoring Pseudomonas aeruginosa Elastase B Activity in Complex Biological Media” (ACS Sensors, 2024)
